Results reported in patent US20230310441A1, “TREATMENT FOR SCHIZOPHRENIA” (TAKEDA PHARMACEUTICAL COMPANY, priority 2020, published 2023).

Columns and labels:
cerebral blood flow = experiment: Average global cerebral blood flow (pCASL MRI); format: in vivo, human
Excerpt: Whole brain maps of regional cerebral blood flow (CBF) were obtained using an ASL methodology previously reported (Hawkins et al., 2018; Dai et al., 2008). Briefly, images were acquired using a pseudo-continuous Arterial Spin Labelling sequence (pCASL) with a multi-shot, segmented 3D stack of axial spirals (8-arms) readout with a resultant spatial resolution of 2×2×3 mm. Three control-label pairs were used to derive a perfusion weighted difference image. The labelling RF pulse had duration of 1.5 s and a post-labelling delay of 1.5 s. The sequence included background suppression for optimum reduction of the static tissue signal. A Proton Density image was acquired in 48 s using the same acquisition parameters to compute the CBF map in standard physiological units (mL blood/100 g tissue/min). Two runs were acquired per visit and averaged following preprocessing.
The T2-weighted image was co-registered to the T1-weighted image prior to creation of the DARTEL template, and each session's Proton Density image was then co-registered to the T2-weighted image. The parameters for this transformation were then applied to the CBF maps, and the DARTEL flow field applied to normalize to CBF maps to MNI space, before smoothing with a 6 mm FWHM kernel.
Average global cerebral blood flow (CBF) was extracting using an SPM MNI whole brain mask in MarsBar, and was analyzed at each time point with a mixed two-way ANOVA (treatment (placebo/drug) within subject factor, dose level (40 mg/160 mg) between-subject factor) (FIG. 4).

[1] = Phase 2 crossover study: safety in subjects with stable schizophrenia; format: in vivo, human
Excerpt: The safety analysis set consisted of all subjects who were enrolled and received at least 1 dose of study drug. Safety measurements included adverse events, physical examinations, vital signs, clinical laboratory evaluations, ECGs, and C-SSRS.

[2] = system: ventral striatum activation; experiment: fMRI BOLD ventral striatum activation in the MID Reward Task; format: in vivo, human
Excerpt: After a break, subjects took the second block that comprised a battery of imaging tests; namely, brain perfusion using non-contrast arterial spin labeling MRI and fMRI scans which monitor changes in blood oxygen level-dependent (BOLD) signal. The fMRI was run in resting state without a task (resting state fMRI) and with 2 tasks (2-task fMRI) using the monetary incentive delay (MID) Reward Task and a Set-Shifting Task. After a break, subjects took the third block which comprised the Effort Expenditure for Rewards Task and the Empathic Accuracy Task. Subjects also received the Positive and Negative Syndrome Scale (PANSS), the Brief Negative Syndrome Scale (BNSS), and the Clinical Global Impression (CGI) Scales (CGI-Severity and CGI-Improvement) as a part of the PD assessment.
The BOLD signal in the average of the left and right ventral striatum activation in the MID Reward Task 3.5 h post-dose on Day 1 and the BACS composite score on Day 14 were the primary PD measures.
The observed BOLD signal was summarized (N, mean, median, SD, minimum, and maximum) by treatment (Compound (I) (overall and by dose) and placebo) and time. The BACS composite score was summarized for baseline, post-dose, and change from baseline by treatment, dose, and time.
Each of the primary PD measures was analyzed using a Bayesian normal linear model with effects for sequence, period, treatment, time (as a categorical variable), the treatment-by-time interaction, subject within treatment sequence, and baseline (for BACS only). For the BOLD fMRI, the observed value was the response variable in the model. For the BACS, the observed and the change from baseline were modeled separately. Missing values were not imputed and were not included in the model under a missing at random assumption. A diffuse normal distribution with mean zero and variance 106 was used as a prior for the regression coefficients and a diffuse inverse gamma with shape and scale parameters of 0.01 for the residual variance.
The criteria for a positive result at the IA was 70% posterior probability (or greater) of a difference between Compound (I) and placebo >0.09 in ventral striatum activation in the MID fMRI at 3.5 h post-dose on Day 1 or 70% (or greater) posterior probability of a difference between Compound (I) and placebo >2 points in the BACS composite score at Day 14.

[3] = Phase 1 FIH study Part 4: safety and tolerability (TEAEs) in patients with stable schizophrenia; format: in vivo, human
Excerpt: Part 4 was a double-blind, weekly single dosing, parallel group design in patients with stable schizophrenia.
Participants in the placebo group received placebo on all study dosing days.
In Part 4, participants met schizophrenia criteria as defined by the Diagnostic and Statistical Manual of Mental Disorders, 5th Edition (DSM-5) by the Mini International Neuropsychiatric Interview (MINI), a Positive and Negative Syndrome Scale (PANSS) total score ≤90 and a sum of PANSS N1, N2, N3, N4, N6, G7 and G16≥15 at screening and baseline. In addition, participants had to be on a stable dose of antipsychotic medication for at least two months.
Safety measurements used in the phase 1 study included treatment-emergent adverse events (TEAEs), physical examinations, weight, height, BMI, vital signs, clinical laboratory evaluations, pregnancy monitoring, and ECG procedures.
Participants experiencing two or more different TEAEs were counted only once. Frequent TEAEs were defined as adverse events that occurred in at least two participants in any treatment. Participants were evaluated with respect to mood and alertness (BL-VAS) and suicidality (C-SSRS).

[4] = Separate single dose oral study: half-life in rats; details: rat, in vivo; single dose oral administration of 5-15 mg/kg
Excerpt: (§1) The mean t1/2z for Compound (I) reflects the prolonged half-life of Compound (I) in humans. […] In that study, the mean human half-life of Compound (I) (approximately 11 days) was substantially higher than the 2-4 hr mean half-life observed in rats and dogs.

[5] = Separate single dose oral study: half-life in humans; details: human, in vivo; single dose oral administration
Excerpt: as §1

[6] = Part 4 MRD, 160/80 mg, N = 16, participants (percent)

Compound: C[C@H](NC(=O)Cn1nnc2ccccc2c1=O)c1ccc(OC(F)(F)F)cc1 [Compound (I), (S)-2-(4-oxobenzo[d][1,2,3]triazin-3(4H)-yl)-N-(1-(4-(trifluoromethoxy)phenyl)ethyl)acetamide]
- effect of treatment on average global CBF (mixed two-way ANOVA) (cerebral blood flow; Day 1, 40 mg/160 mg vs placebo, F(1, 18)=5.978, p=0.025): significant effect of treatment
- effects on cerebral blood flow compared to placebo (cerebral blood flow; Day 1 and Day 14): widespread and robust reductions at Day 1 followed by increases at Day 14
- effect of treatment on average global CBF (mixed two-way ANOVA) (cerebral blood flow; Day 14, 40 mg/160 mg vs placebo, F(1, 15)=3.558, p=0.079): no significant effect of treatment
- deaths or serious adverse events ([1]; phase 2): no deaths or serious adverse events
- discontinuation of study medication due to TEAEs ([1]; phase 2): No subjects discontinued study medication due to TEAEs
- safety and tolerability ([1]; phase 2, single doses 40 or 160 mg, add-on to antipsychotics): safe and well-tolerated
- ventral striatal activation relative to placebo ([2]; Day 1): decrease in ventral striatal activation
- posterior mean (SD) for the difference to placebo, fMRI BOLD endpoint ([2]; Day 1, 40 mg): −0.1 (0.21)
- posterior mean (SD) for the difference to placebo, fMRI BOLD endpoint ([2]; Day 1, 160 mg): −0.15 (0.14)
- posterior mean (SD) for the difference to placebo, fMRI BOLD endpoint ([2]; Day 1, overall): −0.14 (0.11)
- ventral striatal activation relative to placebo ([2]; Day 14): dose-related increase in activation relative to placebo
- TEAE intensity ([3]; Part 4 (MRD)): All TEAEs were mild
- frequency of TEAEs related to the study drug ([3]; Part 4 (MRD), patients with schizophrenia who received Compound (I)): 56.3%
- Any TEAE [3, 6]: 9 (56.3)
- TEAE Mild [3, 6]: 9 (56.3)
- TEAE Related [3, 6]: 9 (56.3)
- half-life [4]: 2 to 4 h
- half-life [5]: ~264 h
